# Experimental data reported in patent US11674962B2, “Therapeutic and diagnostic methods for cancer” (Genentech, Inc., priority 2017, dated 2023).
# Several values for one entry are separate records, joined by “and”; a condition that tells them apart may be missing. Equal values may be shown once.
# Test system: locally advanced or metastatic non-small cell lung cancer (NSCLC)
# Assay: POPLAR phase II clinical trial (NCT01903993): atezolizumab vs docetaxel, outcomes by bTMB score
# Assay type: in vivo, human
# Conditions: for OS HR (95% CI) / PFS HR (95% CI) / OS HR / PFS HR: atezolizumab vs docetaxel
# Procedure: A blood-based assay was used to evaluate the association between clinical response to treatment with atezolizumab (MPDL3280A) and blood tumor mutational burden (bTMB) score in patients with non-small cell lung cancer (NSCLC) enrolled in two clinical trials, a phase II clinical trial, POPLAR (Clinical Trial ID No.: NCT01903993), and a phase III clinical trial, OAK (Clinical Trial ID No.: NCT02008227), in which atezolizumab was administered as a monotherapy.
# Pre-treatment blood samples from patients with NSCLC who were enrolled in the POPLAR and/or the OAK studies, in which atezolizumab was administered as a monotherapy, were evaluated for bTMB score and/or maximum somatic allele frequency (MSAF).
# The POPLAR (Clinical Trial ID No.: NCT01903993) patient population evaluated for bTMB score consisted of 273 patients. Patients were eligible for enrollment in the POPLAR study if they had locally advanced or metastatic (e.g., stage IIIB, stage IV, or recurrent) non-small cell lung cancer (NSCLC); disease progression during or following treatment with a prior platinum-containing regimen for locally advanced, unresectable/inoperable, or metastatic NSCLC, or disease recurrence within 6 months of treatment with a platinum-based adjuvant/neoadjuvant regimen; measurable disease, as defined by RECIST v1.1; and an Eastern Cooperative Oncology Group (ECOG) performance status of 0 or 1. Participants were randomized to receive either atezolizumab at a dose of 1200 mg intravenously every three weeks or docetaxel 75 mg per meter square (mg/m^2) intravenously every three weeks. Treatment with atezolizumab could be continued as long as participants were experiencing clinical benefit, i.e., in the absence of unacceptable toxicity or symptomatic deterioration attributed to disease progression.
# Analysis of bTMB was performed retrospectively. Progression-free survival (PFS) was defined as the time between date of randomization and date of first documented disease progression as assessed by the investigator using RECIST v.1.1 or death from any cause, whichever occurred first. Overall survival (OS) was defined as the time between the date of randomization until death due to any cause. Treatment arms were compared for OS and PFS individually using a univariate Cox regression model without stratification in the biomarker evaluable-population (BEP) and their subgroups or using a stratified (by randomization stratification factors) Cox model in the ITT population. No multiplicity correction was applied to p-values or confidence intervals (CI). Kaplan-Meier methodology was used to estimate median OS and PFS and construct survival curves.
# In the POPLAR ITT population (N=287), 273 samples were available for analysis. Of these, 6 were removed for sample contamination >1%; 9 were removed for median exon coverage <800×; and 47 were removed for low MSAF<1%.
# The POPLAR BEP (N=211) includes 15 patients with EGFR mutation or ALK rearrangement, and 196 without known alterations.
# To identify somatic mutations and calculate a bTMB score, whole blood samples obtained from each patient (collected in EDTA or Streck tubes) were processed through a series of spins to isolate plasma, from which cell free DNA (cfDNA) was extracted for sequencing analysis. Specifically, at least 20 ng purified cfDNA was used for library construction. Next-generation sequencing libraries using fragment barcodes and hybrid capture were constructed to analyze and sequence a pre-determined set of 394 genes that covered approximately 1.125 Mb of the exome. Specifically, purified libraries were hybrid captured using a 394-gene bait set and then further purified, pooled and loaded on an ILLUMINA® HISEQ® 4000 sequencing system. Sequenced libraries were aligned and sorted. […]
# [1] = bTMB score subgroup ≥10 (96 patients)
# [2] = bTMB score subgroup ≥16 (63 patients)
# [3] = bTMB score subgroup ≥20 (42 patients)
substance,measurement,setting,value
atezolizumab,OS HR (95% CI),BEP (n = 211),0.68
same,PFS HR (95% CI),BEP (n = 211),0.9
same,OS HR (95% CI),ITT (n = 287),0.69 and 0.73
same,PFS HR (95% CI),ITT (n = 287),0.92 and 0.94
same,OS HR,[1],0.59
same,PFS HR,[1],0.68
same,OS HR,[2],0.56
same,PFS HR,[2],0.57
same,OS HR,[3],0.51
same,PFS HR,[3],0.58
same,median OS,"bTMB≥16, per treatment arm",13.0 months
same,median PFS,"bTMB≥16, per treatment arm",4.2 months
same,PFS HR,"reference bTMB score of 18 (Dx+, n=52)",0.57
